The values below come from US7795226B2, “Control of radiation injury” (Biotempt B.V., priority 2006, dated 2010).

Assay [1] has as its system gamma-irradiated mice. Conditions: cited from earlier work; for protection against gamma-irradiation (in words): mouse, in vivo.
Assay [2] has as its system radiation exposure. Conditions: in vivo; cited from earlier work.
The subject of assay [3] is gamma-irradiated mice. Conditions: cited from earlier work.
Assay [4] relates to BALB/c mice exposed whole body to 10 Gy 137Cs-γ-irradiation. The assay can be described thus: Whole body γ-irradiation (10 Gy), peptide 1.5 hours before irradiation. The format is in vivo. Conditions: 10 mg/kg i.p. 1.5 hours before 10 Gy; for Watery eyes / Weight loss: affected/total; for Mortality: dead/total. The method, then:
(§1) In the first experiment, 12-week-old female BALB/c mice were treated intraperitoneally with a single injection of either PBS (n=9) or with a peptide (LQGV (SEQ ID NO:117), VLPALP (SEQ ID NO:140), LPGCPRGVNPVVS (SEQ ID NO:114), MTRVLQGVLPALPQVVC (SEQ ID NO:113); n=8, 10 mg/kg). One and a half hours after the treatment, mice were exposed whole body to a single dose of 10 Gy ^137Cs-γ-irradiation. In the second experiment, 12-week-old female BALB/c mice were first exposed whole body to a single dose of 10 Gy ^137Cs-γ-irradiation and then 1.5 hours after the irradiation treated intraperitoneally with a single injection of either PBS (n=9) or with a peptide (n=8 or 9, 10 mg/kg).

For assay [5] the test system is unchanged. The assay can be described thus: Whole body γ-irradiation (10 Gy), peptide 1.5 hours after irradiation. The class given is in vivo. Conditions: 10 mg/kg i.p. 1.5 hours after 10 Gy; for Watery eyes / Weight loss: affected/total; for Mortality: dead/total. On the procedure: as §1

As to `C[C@]12CC[C@H]3[C@@H]([C@@H](O)C=C4C[C@@H](O)CC[C@@]43C)[C@@H]1CC[C@@H]2O` [AET, 5-androstene-3B,7B, 17B-triol], the “protection against gamma-irradiation (in words)” value in assay [1] is reported as “No protection was observed”.
On to `C[C@]12CC[C@H](O)CC1=CC[C@@H]1[C@@H]2CC[C@]2(C)C(=O)CC[C@@H]12` [DHEA, dehydroepiandrosterone], for which the “protection against gamma-irradiation (in words)” value in assay [1] is “No protection was observed”.
As for `O=C(O)c1ccc(/C=C/S(=O)(=O)Cc2ccc(Cl)cc2)cc1` [ON-01210, 4-carboxystyrl-4-chlorobenzylsulfone], the “radiation protection activity (in words)” value in assay [2] is given as “protective only if it is given pre-radiation exposure”.
Consider `C[C@]12CC[C@H]3[C@@H](CC=C4C[C@@H](O)CC[C@@]43C)[C@@H]1CC[C@@H]2O` [Peptide 5-AED, 5-androstenediol], for which the dose reduction factor in assay [1] (sc administration prior to WBI, from probit survival curves) was 1.3.
As to `C[C@]12CCC(=O)C=C1CC[C@@H]1[C@@H]2CC[C@]2(C)C(=O)CC[C@@H]12` [androstenedione], the “protection against gamma-irradiation (in words)” value in assay [1] was “No protection was observed”.
As to `O=c1c(-c2ccc(O)cc2)coc2cc(O)cc(O)c12` [genisteine], the “Dose reduction Factor (DRF)” value in assay [3] (best dose 200 mg/kg, 24 hours before irradiation) is listed as 1.16. Further, the “radioprotection (in words)” value in assay [3] (given one hour prior to whole body irradiation) was “no radioprotection was observed”.
“MTRVLQGVLPALPQVVC [residues 41-57 of loop 2 of the beta-subunit of hCG]”: the Watery eyes is given as 0/8 in assay [4] (day 0 after irradiation), 1/8 in assay [4] (day 4 after irradiation), 0/9 in assay [5] (day 0 after irradiation) and 0/9 in assay [5] (day 4 after irradiation). Further, the Weight loss in assay [4] (day 0 after irradiation) was 0/8; in assay [4] (day 4 after irradiation), 1/8; in assay [5] (day 0 after irradiation), 0/9; in assay [5] (day 4 after irradiation), 9/9. Also, the Mortality is 0/8 in assay [4] (day 0 after irradiation); 0/8 in assay [4] (day 3 after irradiation); 0/8 in assay [4] (day 4 after irradiation); 0/8 in assay [4] (day 5 after irradiation); 7/8 in assay [4] (day 6 after irradiation); 8/8 in assay [4] (day 7 after irradiation). Besides, the Mortality is recorded as 0/9 in assay [5] (day 0 after irradiation); 0/9 in assay [5] (day 3 after irradiation); 0/9 in assay [5] (day 4 after irradiation); 0/9 in assay [5] (day 5 after irradiation); 5/9 in assay [5] (day 6 after irradiation); 9/9 in assay [5] (day 7 after irradiation).
